row,melting point [°C],Compound
1,72 to 76,O=Cc1cc(Cl)cc(Cl)c1Cl
2,105 to 108,CCOC(=O)c1ccc2c(c1)nnn2C
3,267 to 272,CCOC(=O)c1c[nH]c2c(F)c(F)c(F)cc2c1=O
4,117,CC12CCC(C(=O)/C(=N\Nc3ccccc3)C1=O)C2(C)C (centres undefined)
5,33,CCC(=O)C(=O)O
6,113 to 114,CC(=NO)c1cccs1
7,64,C[Si](C)(C)OC1(C#Cc2ccccc2)Cc2ccccc21 (centres undefined)
8,103,c1ccc(-c2coc(-c3ccccc3)n2)cc1
9,99 to 103,NNC(=O)c1ccccc1Oc1ccccc1
10,-40,CC(=O)OCCN(CCOC(C)=O)CCOC(C)=O
11,192 to 200,O=C(O)c1cc(-c2ccccc2)on1
12,208,Cc1nnc(NS(=O)(=O)c2ccc(N)cc2)s1
13,135,CC(C)(C)C=C=C=C=CC(C)(C)C
14,112,O=C(O)Cc1ccccc1Oc1ccc(Cl)cc1Cl
15,108 to 109,CN(C)CCOc1ccccc1C(=O)O
16,174,O=C(O)c1ccc([N+](=O)[O-])cc1F
17,140,O=Cc1cccc2c1CCOC2=O
18,123 to 128,CC(C(=O)O)c1ccc(CBr)cc1 (centres undefined)
19,45 to 46,O=C(CBr)c1ccc(C(F)(F)F)cc1
20,141,NS(=O)(=O)c1cc(F)ccc1F
21,96 to 97,CCOc1nc2ccccc2c(=O)n1Cc1ccccc1
22,190,CCC(=NNc1cccc(NN=C(CC)C(=O)O)c1)C(=O)O
23,111,NC(=S)NCCCc1ccccc1
24,270,O=c1c(Nc2ccccc2)c(Nc2ccccc2)c1=O
25,125 to 132,COc1ccc(C(O)C(=O)O)cc1O (racemic)
26,157 to 159,O=C(O)[C@@H](O)CCN1C(=O)c2ccccc2C1=O
27,107 to 110,OC1(c2ccccc2)c2ccccc2-c2ccccc21

row,melting point [°C],Compound
1,102 to 105,CCOC(=O)CC1NCCNC1=O (centres undefined)
2,220,CCC1=CCCC1=NNc1ccc([N+](=O)[O-])cc1[N+](=O)[O-]
3,143 to 144,Cc1cc(C)c(CC(=NOCC(=O)O)c2cc3ccccc3o2)c(C)c1
4,52,CC(=O)OC1CCCc2c(C)ccc(C)c21 (centres undefined)
5,205 to 206,CC12CCC(C(=C/O)/C1=N\NC(N)=O)C2(C)C (centres undefined)
6,189,O=C(O)c1ccc(OCc2ccccc2)cc1
7,163,NS(=O)(=O)c1ccc(SCCCO)c([N+](=O)[O-])c1
8,180,c1ccc2sc(SSc3nc4ccccc4s3)nc2c1
9,75,COc1ccc(-n2nc(C(=O)c3cccc4ccccc34)sc2=N)cc1
10,93.5,Cc1c(Cl)c(Cl)cc(Cl)c1Cl
11,63 to 108,CCCCCCCCC(=O)c1ccc(/N=N/c2ccc(OCC)cc2)cc1
12,235 to 236,Nc1c(Br)cc(Br)cc1C(=O)O
13,134 to 137,CCOC(=O)c1c(SC)nc2ccc(Cl)cc2c1Cl
14,126 to 128,O=C(O)CCn1c(=O)oc2ccccc21
15,102 to 109,O=C(O)c1ncccc1N1CCCCC1
16,72 to 74,CCOC(=O)CN(C)C(=O)c1nn(-c2ccccc2)nc1C
17,153,O=C(O)Cc1cc(O)ccc1O
18,96,CC12CCC(C(COC(=O)c3ccccc3)C1=O)C2(C)C (centres undefined)
19,-75,CC[Si](Cl)(CC)CC
20,67,COC(=O)c1ccc(Cl)cc1N
21,-11,CCCCCCCCNC
22,88 to 89,O=C(O)c1cc(F)c(F)c(F)c1F
23,71,COC(=O)CCc1cc(CCC(=O)OC)c([N+](=O)[O-])cc1[N+](=O)[O-]
24,108,N#Cc1c(Cl)ccc([N+](=O)[O-])c1Cl
25,147,CCC(CCC(C)C1CCC2C3CC=C4CC(O)CCC4(C)C3CCC12C)C(C)C (centres undefined)
26,50 to 52,O=S(=O)(Cl)c1ccc2c(c1)OCCCO2
27,35,Nc1c(F)cc(F)cc1F

# Further lines, the molecule ahead of its results:
row,Compound,melting point [°C]
1,"CC12CCC3C(CC=C4CC(O)CCC43C)C1CCC2=O (single isomer, unassigned; (+))",146 to 151
2,O=Cc1cc2ccccc2n1S(=O)(=O)c1ccccc1,111 to 112
3,Oc1ccc(O)c(Cl)c1,108
4,CCCCCCCCC(=O)OCCCCC,-27
5,O=[N+]([O-])c1cc(Cl)ccc1Sc1ccccc1,82 to 84
6,COc1cc(CCl)cc(OC)c1,46 to 48
7,CC(=O)OC1CC2C3CCC(C(C)CCCC(C)C)C3(C)CCC2C2(C)CCC(=O)CC12O (centres undefined),161
8,Oc1c(Br)cc(Br)cc1Br,95.5
9,ClCc1csc(-c2ccc(Cl)cc2)n1,78 to 79
10,OCc1csc(-c2cccnc2)n1,120 to 121
11,N#CC(=Cc1cccs1)c1nc2ccccc2s1,148
12,C/C=C/C(=O)OC,-42
13,COc1cccc(OC)c1P(c1c(OC)cccc1OC)c1c(OC)cccc1OC,155
14,C/C(=N/NC(N)=O)C(=O)Nc1ccc(Br)cc1,243 to 245
15,N=c1sc(C(=O)c2cccs2)nn1-c1ccccc1,134
16,Nc1c(Cl)cc([N+](=O)[O-])cc1Br,175
17,COc1ccc(C(=O)C2CC2)cc1,42
18,Cn1ncc2c(Cl)ncnc21,97 to 100
19,O=[N+]([O-])c1ccc(S(=O)(=O)OCc2ccccc2OS(=O)(=O)c2ccc([N+](=O)[O-])cc2)cc1,204 to 206
20,CCOC(=O)c1nn(-c2ccc(Cl)cc2Cl)c(-c2ccc([N+](=O)[O-])cc2)c1S(=O)(=O)c1ccccc1,118
21,CCOP(=S)(Oc1ccc([N+](=O)[O-])cc1)c1ccccc1 (centres undefined),36
22,CCOC(=O)CCCCCCCC(=O)OCC,-18.5
23,Cc1cc(C(=O)O)cc(Cl)c1N,274 to 277
24,Nc1ccncc1Cl,51
25,O=[N+]([O-])c1c(Br)sc(Br)c1[N+](=O)[O-],136

row,Compound,melting point [°C]
1,Oc1c(F)c(F)c(F)c2c(F)c(F)c(F)c(F)c12,103 to 107
2,NCc1ccc(N2CCOCC2)cc1,50
3,O=C(O)Cc1ccc(F)cc1F,118
4,Cc1c(F)ccc(C#N)c1F,44
5,Nc1nn2c(-c3ccccc3)cc(=O)[nH]c2c1/N=N/c1c(Br)cc(Br)cc1Br,316
6,CCC(C)c1ccccc1OC(=O)NC (centres undefined),31.5
7,CCCCCCCCCCCCCCCCCCN=C=O,20
8,O=C(Cc1ccccc1)c1ccc(O)cc1O,112 to 117
9,N#Cc1ccc(C=Cc2ccccc2C=NNc2ccccc2)c([N+](=O)[O-])c1,182
10,Ic1cn(C(c2ccccc2)(c2ccccc2)c2ccccc2)cn1,224 to 225
11,CCCCCCCCCCSCCCCCCCCCC,27
12,CC(=O)CCc1cc2c(cc1[N+](=O)[O-])CCC(C)N2C(=O)c1ccccc1 (centres undefined),138
13,COc1cccc2c(O)c3ccccc3nc12,284 to 287
14,CC(C)(C)OC(=O)C1CC(=O)CN1C(=O)OC(C)(C)C (centres undefined),66
15,O=C(O)CC(F)(F)C(=O)O,142
16,Cc1nc(C2CCN(C(=O)OC(C)(C)C)CC2)sc1C(=O)O,124 to 128
17,N#Cc1ncc(Cl)cc1Cl,101
18,CON(C(=O)c1cc(C)oc1C)C1CCCCC1,33
19,CC(C)CCCCCCCO,5
20,CN(C=O)c1ccc(C(=O)O)cc1,217 to 221
21,CC1CC2(C)C(CCC3C4CCC(O)C4(C)CCC32)CC1=O (centres undefined),151
22,CC1=CC(O)c2ccccc21 (centres undefined),69
23,O=C(c1ccc(F)cc1)C(F)(F)F,24 to 27
24,Nc1ccc(CN2CCCCC2)cc1,87 to 88
25,O=[N+]([O-])c1cccnc1Sc1ccc(Cl)cc1,127 to 129

row,Compound,melting point [°C]
1,OCC1CCNCC1,59
2,Cc1ccc(O)c(F)c1F,37
3,O=C(O)CC(O)(C(F)(F)F)C(F)(F)F,87
4,CC(=O)OC1CCC2(C)C(CCC3C4CC=C(C#Cc5ccccc5)C4(C)CCC32)C1 (centres undefined),152 to 153
5,CC(=O)c1ccc(-c2cccc([N+](=O)[O-])c2)cc1,108
6,O=C(c1ccc2ccccc2c1)c1noc(-c2ccc3ccccc3c2)c1S(=O)(=O)c1ccccc1,120
7,ON=C1CCCCCN1,168 to 170
8,O=C1CC2C(Cl)CC1C2C(=O)O (centres undefined),157 to 160
9,CC(=O)n1c(C)cc2cc3c(cc21)=NC(C)C=3 (centres undefined),279
10,CC(=O)c1c(O)c(C)c(O)c2c1OC1=CC(=O)C(C(C)=O)C(=O)C12C (centres undefined),204
11,Oc1cc(Cl)cc(Cl)c1O,82.5
12,COc1cc(C=O)ccc1F,62
13,O=c1[nH]c(=O)n(C2CCC(CO)O2)cc1Br (centres undefined),180
14,C#CC1(O)CCC2C3CCC4=CC(O)CCC4(C)C3CCC21C (centres undefined),204
15,Cc1nn(C)c(Cl)c1N=Nc1ccccc1,44 to 46
16,Cc1cccc(C(N)=NO)c1,143 to 146
17,Brc1ccc2[nH]cnc2c1,130 to 131
18,CCCS(=O)(=O)CCC,29.5
19,CC(C)(C)N(NC(=O)c1ccccc1)C(=O)c1c(F)cccc1Cl,210
20,CC12CC(O)C3C(CCC4(O)CC(O)CC(O)C34CO)C1(O)CCC2C1=CC(=O)OC1 (centres undefined),236
21,O=C(O)c1ccc2nonc2c1,157 to 158
22,N=C(N)NCCC[C@H](NC(=O)OCc1ccccc1)C(=O)O,173 to 175
23,Cc1cccc2[nH]ccc12,5
24,O=S(=O)(Cl)c1c(Cl)ccc2nonc12,73 to 75
25,Oc1cc(Br)ccn1,203

# Reference: a melting point compilation (Tetko et al.)
